Measurements published in publication PMC9403976, “Elucidating the path to Plasmodium prolyl-tRNA synthetase inhibitors that overcome halofuginone resistance” (Nature Communications, 2022).
Several values for one entry are separate records, joined by “and”; a condition that tells them apart may be missing. Equal entries are not always repeated. Where two headings read alike, the source gives them in different places.

Legend:
[1] = test system: P. falciparum Dd2-2D4; experiment: P. falciparum asexual blood stage (ABS) growth assay, SYBR Green, 72 h, wild-type parasites; format: cell-based, Plasmodium falciparum; conditions: Plasmodium falciparum, DD2; SI Fig 16b; values on -log scale; read-out: ABS - Dd2-2D4 (converted)
[2] = molecular target: T1, PfcProRS (Plasmodium falciparum, UniProt Q8I5R7); format: binding; conditions: for dose-response signal (normalized), SI Fig 8: single replicates
T1 construct: made in house; host or cells: E. coli SoluBL-21
T1 sequence (Q8I5R7 249-746): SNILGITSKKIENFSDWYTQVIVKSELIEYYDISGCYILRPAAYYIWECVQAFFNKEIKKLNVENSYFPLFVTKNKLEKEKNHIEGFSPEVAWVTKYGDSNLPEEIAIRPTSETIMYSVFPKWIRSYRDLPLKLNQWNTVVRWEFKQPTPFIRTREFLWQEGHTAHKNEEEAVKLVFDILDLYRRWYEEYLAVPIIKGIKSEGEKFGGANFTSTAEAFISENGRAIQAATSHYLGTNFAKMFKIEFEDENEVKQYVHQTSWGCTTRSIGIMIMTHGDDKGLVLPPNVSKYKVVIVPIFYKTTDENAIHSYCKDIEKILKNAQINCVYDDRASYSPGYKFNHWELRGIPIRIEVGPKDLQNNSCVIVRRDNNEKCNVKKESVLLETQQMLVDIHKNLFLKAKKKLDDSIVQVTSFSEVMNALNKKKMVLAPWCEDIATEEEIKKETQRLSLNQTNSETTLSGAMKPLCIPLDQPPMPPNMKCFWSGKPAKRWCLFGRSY

[3] = molecular target: HsProRS (Homo sapiens, UniProt P07814); experiment: TR-FRET ligand displacement assay with tracer MAT379 (CoraFluor-1-Halo and anti-His6 antibody formats); format: binding; parameters: made in house; host or cells: E. coli SoluBL-21; conditions: for TR-FRET dose-response, normalized signal (SI Fig 11): individual replicates
Sequence of HsProRS (P07814 996-1512): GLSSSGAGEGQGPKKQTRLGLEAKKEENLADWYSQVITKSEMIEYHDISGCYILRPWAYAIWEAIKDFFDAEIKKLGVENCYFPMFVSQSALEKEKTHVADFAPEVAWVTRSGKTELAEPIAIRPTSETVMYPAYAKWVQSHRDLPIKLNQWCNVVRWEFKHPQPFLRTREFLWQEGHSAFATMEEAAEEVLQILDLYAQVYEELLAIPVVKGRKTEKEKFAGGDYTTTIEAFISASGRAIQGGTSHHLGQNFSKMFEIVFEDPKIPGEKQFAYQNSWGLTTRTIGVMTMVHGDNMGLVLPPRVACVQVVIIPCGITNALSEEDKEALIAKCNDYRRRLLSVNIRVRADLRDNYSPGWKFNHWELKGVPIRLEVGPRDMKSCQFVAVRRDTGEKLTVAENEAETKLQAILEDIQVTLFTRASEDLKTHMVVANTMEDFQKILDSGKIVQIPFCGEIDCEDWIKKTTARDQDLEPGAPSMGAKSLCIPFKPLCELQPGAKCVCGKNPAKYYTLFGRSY

## O=C(Nc1nccnc1C(=O)NC1Cc2ccccc2C1)c1ccccc1 [compound 21]
[1]
  EC50: 9.59 µM
[2]; Log[inhibitor] (M) -5.000
  dose-response signal (normalized), SI Fig 8: 2.91E-01 and 3.96E-01 and 3.40E-01
[2]; Log[inhibitor] (M) -5.301
  dose-response signal (normalized), SI Fig 8: 6.52E-01 and 5.68E-01 and 6.33E-01
[2]; Log[inhibitor] (M) -5.601
  dose-response signal (normalized), SI Fig 8: 7.76E-01 and 6.88E-01 and 8.76E-01
[2]; Log[inhibitor] (M) -5.904
  dose-response signal (normalized), SI Fig 8: 1.01E+00 and 9.17E-01 and 9.47E-01
[2]; Log[inhibitor] (M) -6.208
  dose-response signal (normalized), SI Fig 8: 1.01E+00 and 1.00E+00 and 8.81E-01
[2]; Log[inhibitor] (M) -6.509
  dose-response signal (normalized), SI Fig 8: 9.40E-01 and 8.71E-01 and 1.01E+00
[2]; Log[inhibitor] (M) -6.796
  dose-response signal (normalized), SI Fig 8: 1.06E+00 and 9.99E-01 and 1.08E+00
[2]; Log[inhibitor] (M) -7.108
  dose-response signal (normalized), SI Fig 8: 9.00E-01 and 9.54E-01 and 9.75E-01
[2]; Log[inhibitor] (M) -7.409
  dose-response signal (normalized), SI Fig 8: 1.04E+00 and 1.03E+00 and 9.91E-01
[2]; Log[inhibitor] (M) -7.710
  dose-response signal (normalized), SI Fig 8: 9.51E-01 and 8.62E-01 and 1.00E+00
[2]; Log[inhibitor] (M) -8.000
  dose-response signal (normalized), SI Fig 8: 9.32E-01 and 1.04E+00 and 9.09E-01
[2]; Log[inhibitor] (M) -8.301
  dose-response signal (normalized), SI Fig 8: 9.87E-01 and 9.76E-01 and 8.57E-01
[2]; Log[inhibitor] (M) -8.602
  dose-response signal (normalized), SI Fig 8: 1.04E+00 (2×) and 9.76E-01
[2]; Log[inhibitor] (M) -9.000
  dose-response signal (normalized), SI Fig 8: 9.49E-01 and 9.11E-01 and 1.01E+00
[2]; Log[inhibitor] (M) -9.301
  dose-response signal (normalized), SI Fig 8: 1.10E+00 and 1.02E+00 and 1.05E+00
[2]; SI Fig 16a, values on -log scale
  PfcProRS -- best Kd: 5.845
[3]; HsProRS (KD [nM]) mean, no added proline/ATP (-)
  Kd: 7830 nM
[3]; HsProRS - best Kd, SI Fig 16a, values on -log scale
  Kd: 140 nM
[3]; Log[inhibitor] (M) -5.000
  normalized TR-FRET ligand displacement signal, dose-response replicates (SI Fig 6): 5.46E-01 and 5.55E-01 and 4.94E-01
  TR-FRET dose-response, normalized signal (SI Fig 11): 4.76E-01 and 4.38E-01 and 4.70E-01
[3]; Log[inhibitor] (M) -5.301
  normalized TR-FRET ligand displacement signal, dose-response replicates (SI Fig 6): 7.40E-01 and 7.43E-01 and 7.80E-01
  TR-FRET dose-response, normalized signal (SI Fig 11): 6.10E-01 and 6.26E-01 and 6.30E-01
[3]; Log[inhibitor] (M) -5.601
  normalized TR-FRET ligand displacement signal, dose-response replicates (SI Fig 6): 9.19E-01 and 8.75E-01 and 9.42E-01
  TR-FRET dose-response, normalized signal (SI Fig 11): 7.50E-01 and 7.65E-01 and 7.70E-01
[3]; Log[inhibitor] (M) -5.904
  normalized TR-FRET ligand displacement signal, dose-response replicates (SI Fig 6): 9.17E-01 and 1.01E+00 and 8.04E-01
  TR-FRET dose-response, normalized signal (SI Fig 11): 8.93E-01 and 9.01E-01 and 8.63E-01
[3]; Log[inhibitor] (M) -6.208
  normalized TR-FRET ligand displacement signal, dose-response replicates (SI Fig 6): 9.67E-01 and 9.54E-01 and 1.10E+00
  TR-FRET dose-response, normalized signal (SI Fig 11): 8.73E-01 and 9.00E-01 and 9.32E-01
[3]; Log[inhibitor] (M) -6.509
  normalized TR-FRET ligand displacement signal, dose-response replicates (SI Fig 6): 9.94E-01 and 9.87E-01 and 9.37E-01
  TR-FRET dose-response, normalized signal (SI Fig 11): 9.94E-01 and 8.74E-01 and 9.48E-01
[3]; Log[inhibitor] (M) -6.796
  normalized TR-FRET ligand displacement signal, dose-response replicates (SI Fig 6): 1.04E+00 (2×) and 9.65E-01
  TR-FRET dose-response, normalized signal (SI Fig 11): 9.17E-01 and 9.74E-01 and 9.27E-01
[3]; Log[inhibitor] (M) -7.108
  normalized TR-FRET ligand displacement signal, dose-response replicates (SI Fig 6): 1.01E+00 and 1.08E+00 and 1.09E+00
  TR-FRET dose-response, normalized signal (SI Fig 11): 9.75E-01 and 8.96E-01 and 1.01E+00
[3]; Log[inhibitor] (M) -7.409
  normalized TR-FRET ligand displacement signal, dose-response replicates (SI Fig 6): 1.16E+00 and 9.90E-01 and 9.46E-01
  TR-FRET dose-response, normalized signal (SI Fig 11): 9.43E-01 and 9.53E-01 and 9.38E-01
[3]; Log[inhibitor] (M) -7.710
  normalized TR-FRET ligand displacement signal, dose-response replicates (SI Fig 6): 1.13E+00 and 9.28E-01 and 1.00E+00
  TR-FRET dose-response, normalized signal (SI Fig 11): 1.01E+00 and 9.57E-01 and 9.99E-01
[3]; Log[inhibitor] (M) -8.000
  normalized TR-FRET ligand displacement signal, dose-response replicates (SI Fig 6): 1.06E+00 and 9.95E-01 and 9.77E-01
  TR-FRET dose-response, normalized signal (SI Fig 11): 9.75E-01 and 9.47E-01 and 9.43E-01
[3]; Log[inhibitor] (M) -8.301
  normalized TR-FRET ligand displacement signal, dose-response replicates (SI Fig 6): 9.85E-01 and 1.04E+00 and 1.05E+00
  TR-FRET dose-response, normalized signal (SI Fig 11): 8.99E-01 and 9.31E-01 and 9.94E-01
[3]; Log[inhibitor] (M) -8.602
  normalized TR-FRET ligand displacement signal, dose-response replicates (SI Fig 6): 9.47E-01 and 9.26E-01 and 9.87E-01
  TR-FRET dose-response, normalized signal (SI Fig 11): 9.70E-01 and 9.30E-01 and 9.54E-01
[3]; Log[inhibitor] (M) -9.000
  normalized TR-FRET ligand displacement signal, dose-response replicates (SI Fig 6): 9.16E-01 and 9.83E-01 and 9.58E-01
  TR-FRET dose-response, normalized signal (SI Fig 11): 9.06E-01 and 1.03E+00 and 9.30E-01
[3]; Log[inhibitor] (M) -9.301
  normalized TR-FRET ligand displacement signal, dose-response replicates (SI Fig 6): 8.87E-01 and 1.01E+00 (2×)
  TR-FRET dose-response, normalized signal (SI Fig 11): 9.47E-01 and 9.42E-01 and 9.85E-01
